Test results reported in patent US20250270199A1, “THIAZOLE DERIVATIVES AND METHODS OF USING THE SAME” (Arkansas State University - Jonesboro, priority 2022, published 2025).
Converted amounts (≈) assume the structure as drawn. Where two headings read alike, the source gives them in different places.

What was measured:
[1] = tested on: S. aureus ATCC 700699 (Sa 99); assay: MIC, broth microdilution, Sa 99; format: cell-based; settings: for MIC: Staphylococcus aureus, read-out: Minimum inhibitory concentration (MIC) Sa 99; for Minimum inhibitory concentration (MIC) Sa 99: Table 1, HT series
Experimental: (§1) The broth microdilution method was utilized to determine MIC values of novel thiazole derivatives against different clinically important Gram-positive bacteria according to the guidelines outlined by the Clinical and Laboratory Standards Institute (CLSI) as reported in our recent papers.^1-5 The starting concentration of compounds for MIC determination was 64 μg/mL serially diluted down the wells and the MIC values were recorded in duplicates in three independent experiments on different days.

[2] = tested on: S. aureus ATCC 25923 (Sa 23); assay: MIC, broth microdilution, Sa 23; format: cell-based; settings: for MIC: Staphylococcus aureus, read-out: Minimum inhibitory concentration (MIC) Sa 23; for Minimum inhibitory concentration (MIC) Sa 23: Table 1, HT series
Experimental: as §1

[3] = tested on: E. faecalis ATCC 29212 (Efs 12); assay: MIC, broth microdilution, Efs 12; format: cell-based; settings: for MIC: Enterococcus faecalis, read-out: Minimum inhibitory concentration (MIC) Efs 12; for Minimum inhibitory concentration (MIC) Efs 12: Table 1, HT series
Experimental: as §1

[4] = tested on: S. aureus ATCC 33592 (Sa 92); assay: MIC, broth microdilution, Sa 92; format: cell-based; settings: Staphylococcus aureus, ATCC33592; Table 2, HTM series; read-out: Minimum inhibitory concentration (MIC) Sa 92
Experimental: as §1

[5] = tested on: S. aureus ATCC 33591 (Sa 91); assay: MIC, broth microdilution, Sa 91; format: cell-based; settings: Staphylococcus aureus, ATCC33591; Table 2, HTM series; read-out: Minimum inhibitory concentration (MIC) Sa 91
Experimental: as §1

[6] = tested on: E. faecium ATCC 700221 (Efm 21); assay: MIC, broth microdilution, Efm 21; format: cell-based; settings: Enterococcus faecium, read-out: Minimum inhibitory concentration (MIC) Efm 21
Experimental: as §1

[7] = tested on: S. aureus subsp. aureus Rosenbach BAA-1717 (Sa USA 300); assay: MIC, broth microdilution, Sa USA 300; format: cell-based; settings: Staphylococcus aureus; Table 2, HTM series; read-out: Minimum inhibitory concentration (MIC) Sa USA 300
Experimental: as §1

[8] = tested on: S. aureus ATCC BAA-2312 (Sa 12); assay: MIC, broth microdilution, Sa 12; format: cell-based; settings: Staphylococcus aureus, ATCCBAA2312; Table 2, HTM series; read-out: Minimum inhibitory concentration (MIC) Sa 12
Experimental: as §1

[9] = tested on: Sa UAMS-1 MRSA ATCC 49230 (Sa UAMS); assay: MIC, broth microdilution, Sa UAMS; format: cell-based, S. aureus; settings: Staphylococcus aureus; Table 2, HTM series; read-out: Minimum inhibitory concentration (MIC) Sa UAMS-1
Experimental: as §1

[10] = tested on: E. faecalis ATCC 51299 (Efs 99); assay: MIC, broth microdilution, Efs 99; format: cell-based; settings: for MIC: Enterococcus faecalis, ATCC51299, read-out: Minimum inhibitory concentration (MIC) Efs 99
Experimental: as §1

[11] = tested on: S. aureus subsp. aureus Rosenbach ATCC 25904 (SA Newman); assay: MIC, broth microdilution, SA Newman; format: cell-based; settings: Staphylococcus aureus; Table 2, HTM series; read-out: Minimum inhibitory concentration (MIC) Sa Newman
Experimental: as §1

[12] = tested on: S. epidermidis ATCC 700296 (Se); assay: MIC, broth microdilution, Se; format: cell-based; settings: Staphylococcus epidermidis, ATCC700296; Table 2, HTM series; read-out: Minimum inhibitory concentration (MIC) Se
Experimental: as §1

[13] = ATCC700699, Table 1, HT series, replicates from different days separated by comma
[14] = replicates from different days separated by comma
[15] = ATCC25923, Table 1, HT series, replicates from different days separated by comma
[16] = ATCC29212, Table 1, HT series, replicates from different days separated by comma
[17] = ATCC700699, Table 2, HTM series
[18] = ATCC700221, Table 2, HTM series

| MIC [1, 13] [µg/mL] | Minimum inhibitory concentration (MIC) Sa 99 [1, 14] | MIC [2, 15] [µg/mL] | Minimum inhibitory concentration (MIC) Sa 23 [2, 14] | MIC [3, 16] [µg/mL] | Minimum inhibitory concentration (MIC) Efs 12 [3, 14] | MIC [6, 18] [µg/mL] | SMILES | further results |
| --- | --- | --- | --- | --- | --- | --- | --- | --- |
| > 32 | >32, >32 μg/mL | > 32 | >32, >32 μg/mL | > 32 | >32, >32 μg/mL | – | N#Cc1ccc(-c2csc(-c3ccc(O)c(O)c3)n2)cc1 [Compound 12, 4-(2-(3,4-dihydroxyphenyl)thiazol-4-yl)benzonitrile] | – |
| – | – | – | – | – | – | 4 (≈ 10.8 µM) | Oc1ccc(-c2csc(Nc3cc(Cl)c(Cl)cc3Cl)n2)cc1 [Compound 69, 4-(2-((2,4,5-trichlorophenyl)amino)thiazol-4-yl)phenol] | MIC [1, 17]: 1 µg/mL (≈ 2.69 µM); MIC [4]: 1 µg/mL (≈ 2.69 µM); MIC [5]: 1 µg/mL (≈ 2.69 µM); MIC [7]: 4 µg/mL (≈ 10.8 µM); MIC ([2]; ATCC25923, Table 2, HTM series): 1 µg/mL (≈ 2.69 µM); MIC [8]: 1 µg/mL (≈ 2.69 µM); MIC [9]: 4 µg/mL (≈ 10.8 µM); MIC ([10]; Table 2, HTM series): 4 µg/mL (≈ 10.8 µM); MIC [11]: 4 µg/mL (≈ 10.8 µM); MIC [12]: 8 µg/mL (≈ 21.5 µM); MIC ([3]; ATCC29212, Table 2, HTM series): 4 µg/mL (≈ 10.8 µM) |
| > 32 | >32, >32 μg/mL | > 32 | >32, >32 μg/mL | > 32 | >32, >32 μg/mL | – | Oc1ccc(-c2nc(-c3ccc(-c4ccccc4)cc3)cs2)cc1O [Compound 15, 4-(4-([1,1′-biphenyl]-4-yl)thiazol-2-yl)benzene-1,2-diol] | – |
| – | – | – | – | – | – | 1 (≈ 0.617 µM) | CCCCCCCCCC(=O)N[C@@H](Cc1c[nH]c2ccccc12)C(=O)N[C@H](CC(N)=O)C(=O)N[C@@H](CC(=O)O)C(=O)N[C@@H]1C(=O)NCC(=O)N[C@@H](CCCN)C(=O)N[C@@H](CC(=O)O)C(=O)N[C@H](C)C(=O)N[C@@H](CC(=O)O)C(=O)NCC(=O)N[C@H](CO)C(=O)N[C@@H]([C@H](C)CC(=O)O)C(=O)N[C@@H](CC(=O)c2ccccc2N)C(=O)O[C@@H]1C [Dapt., Daptomycin, reference compound] | MIC ([6]; ATCC700221, Table 1, HT series): 4 µg/mL (≈ 2.47 µM); MIC ([10]; Table 1, HT series): 1 µg/mL (≈ 0.617 µM); Minimum inhibitory concentration (MIC) Efs 99 ([10]; Table 2, HTM series): 1 µg/mL (≈ 0.617 µM) |
| > 32 | >32, >32 μg/mL | > 32 | >32, >32 μg/mL | > 32 | >32, >32 μg/mL | – | O=C(O)c1ccc(-c2csc(-c3ccc(O)c(O)c3)n2)cc1 [Compound 13, 4-(2-(3,4-dihydroxyphenyl)thiazol-4-yl)benzoic acid] | – |
| > 32 | >32, >32 μg/mL | > 32 | >32, >32 μg/mL | > 32 | >32, >32 μg/mL | – | NC(=O)c1cc(-c2csc(-c3ccc(O)c(O)c3)n2)ccc1O [Compound 16, 5-(2-(3,4-dihydroxyphenyl)thiazol-4-yl)-2-hydroxybenzamide] | – |
| – | – | – | – | – | – | 4 (≈ 11.9 µM) | Oc1ccc(-c2csc(Nc3ccc(Cl)c(Cl)c3)n2)cc1 [Compound 75, 4-(2-((3,4-dichlorophenyl)amino)thiazol-4-yl)phenol] | MIC [1, 17]: 2 µg/mL (≈ 5.93 µM); MIC [4]: 2 µg/mL (≈ 5.93 µM); MIC [5]: 2 µg/mL (≈ 5.93 µM); MIC [7]: 2 µg/mL (≈ 5.93 µM); MIC ([2]; ATCC25923, Table 2, HTM series): 2 µg/mL (≈ 5.93 µM); MIC [8]: 2 µg/mL (≈ 5.93 µM); MIC [9]: 2 µg/mL (≈ 5.93 µM); MIC ([10]; Table 2, HTM series): 4 µg/mL (≈ 11.9 µM); MIC [11]: 4 µg/mL (≈ 11.9 µM); MIC [12]: 2 µg/mL (≈ 5.93 µM); MIC ([3]; ATCC29212, Table 2, HTM series): 4 µg/mL (≈ 11.9 µM) |
| > 32 | >32, >32 μg/mL | > 32 | >32, >32 μg/mL | > 32 | >32, >32 μg/mL | – | Oc1ccc(-c2nc(-c3ccncc3)cs2)cc1O [Compound 11, 4-(4-(pyridin-4-yl)thiazol-2-yl)benzene-1,2-diol] | – |
